# In patent US3985779A, “M-phenoxyphenyl propionic acid derivatives and preparation thereof” (Eisai Co., Ltd., priority 1973, dated 1976):
# How the values were obtained:
# [1] = tested on: Carrageenin-induced edema; assay: Inhibitory activity on Carrageenin-induced Edema in rats (Experiment A); assay type: in vivo, rats (male Wistar); details: 3 hours after Carrageenin
# Protocol: Inhibitory activity on Carrageenin-induced Edema in rats
# Carrageenin was used as the agent for inducing edema and 5 male rats of Wistar strain having body weight of about 150 grs. after fasting for 16-17 hours were used as test animals. The inhibitory activity of the test compounds were determined with the paw edema method in accordance with Winter C. A. et al; Proc. Soc. Exp. Biol. Med. 111, 544 (1962).
# The compounds were suspended in an aqueous solution of gum arabic and the same were orally administered to the rats at 1 hour before the injection of Carrageenin.
# The observation was effected by measuring, after 3 hours the administration of the Carrageenin, the enlarged volumes of hind paw of the rats.
# Kaolin-induced edema = assay: Inhibitory activity on Kaolin-induced Edema in Rats (Experiment B); assay type: in vivo
# ARRS-induced edema = assay: Inhibitory activity on anti-rat-rabbit serum (ARRS)-induced edema in rats (Experiment D); assay type: in vivo
# Protocol: Inhibitory activity on anti-rat-rabbit serum (ARRS)-induced edema in rats Similar Experiments was carried out by using ARRS as irritant substance.
# Dextran-induced edema = assay: Inhibitory activity on dextran-induced edema in rats (Experiment C); assay type: in vivo
# Protocol: Inhibitory activity on dextran-induced edema in rats Experiment was carried out in the manner same as those of the preceding Experiments in which dextran was employed as irritant substance.
smiles,measurement,setting,value
"CC(C(=O)O)c1cccc(Oc2ccc(Cl)cc2)c1 (stereo not drawn) [(3), 2-[m-(p-chlorophenoxy)phenyl]propionic acid]",% of Inhibition,[1]; oral 3.2 mg/kg,20%
same,Edema density ± S.E.,[1]; oral 3.2 mg/kg,.430 ± .068
same,% of Inhibition,[1]; oral 80.0 mg/kg,38%
same,Edema density ± S.E.,[1]; oral 80.0 mg/kg,.334 ± .055
same,Edema D. ± S.E.,"Kaolin-induced edema; after 3 hrs, oral 16 mg/kg",.418 ± .024
same,% of Inhibition,"Kaolin-induced edema; after 3 hrs, oral 80 mg/kg",29%
same,Edema D. ± S.E.,"Kaolin-induced edema; after 3 hrs, oral 80 mg/kg",.297 ± .085
same,% of Inhibition,"Kaolin-induced edema; after 5 hrs, oral 16 mg/kg",13%
same,Edema D. ± S.E.,"Kaolin-induced edema; after 5 hrs, oral 16 mg/kg",.491 ± .021
same,% of Inhibition,"Kaolin-induced edema; after 5 hrs, oral 80 mg/kg",40%
same,Edema D. ± S.E.,"Kaolin-induced edema; after 5 hrs, oral 80 mg/kg",.340 ± .107
same,% of Inhibition,"Kaolin-induced edema; after 7 hrs, oral 16 mg/kg",14%
same,Edema D. ± S.E.,"Kaolin-induced edema; after 7 hrs, oral 16 mg/kg",.524 ± .037
same,% of Inhibition,"Kaolin-induced edema; after 7 hrs, oral 80 mg/kg",27%
same,Edema D. ± S.E.,"Kaolin-induced edema; after 7 hrs, oral 80 mg/kg",.442 ± .119
same,% of Inhibition,"ARRS-induced edema; after 2 hrs, oral 16 mg/kg",10%
same,Edema D. ± S.E.,"ARRS-induced edema; after 2 hrs, oral 16 mg/kg",.613 ± .054
same,% of Inhibition,"ARRS-induced edema; after 2 hrs, oral 80 mg/kg",1%
same,Edema D. ± S.E.,"ARRS-induced edema; after 2 hrs, oral 80 mg/kg",.672 ± .036
same,% of Inhibition,"ARRS-induced edema; after 3 hrs, oral 16 mg/kg",16%
same,Edema D. ± S.E.,"ARRS-induced edema; after 3 hrs, oral 16 mg/kg",.599 ± .065
same,% of Inhibition,"ARRS-induced edema; after 3 hrs, oral 80 mg/kg",11%
same,Edema D. ± S.E.,"ARRS-induced edema; after 3 hrs, oral 80 mg/kg",.634 ± .016
same,% of Inhibition,"Dextran-induced edema; after 2 hrs, oral 16 mg/kg",6%
same,Edema D. ± S.E.,"Dextran-induced edema; after 2 hrs, oral 16 mg/kg",.782 ± .062
same,% of Inhibition,"Dextran-induced edema; after 2 hrs, oral 80 mg/kg",7%
same,Edema D. ± S.E.,"Dextran-induced edema; after 2 hrs, oral 80 mg/kg",.776 ± .022
same,% of Inhibition,"Dextran-induced edema; after 3 hrs, oral 16 mg/kg",5%
same,Edema D. ± S.E.,"Dextran-induced edema; after 3 hrs, oral 16 mg/kg",.713 ± .036
same,% of Inhibition,"Dextran-induced edema; after 3 hrs, oral 80 mg/kg",4%
same,Edema D. ± S.E.,"Dextran-induced edema; after 3 hrs, oral 80 mg/kg",.723 ± .027
CC(C(=O)O)c1cccc(Oc2ccc(Cl)cc2)c1 (stereo not drawn) [(4)],% of Inhibition,[1]; oral 8.0 mg/kg,12%
same,Edema density ± S.E.,[1]; oral 8.0 mg/kg,.477 ± .049
same,% of Inhibition,[1]; oral 40.0 mg/kg,46%
same,Edema density ± S.E.,[1]; oral 40.0 mg/kg,.293 ± .056
same,% of Inhibition,"Kaolin-induced edema; after 3 hrs, oral 8 mg/kg",12%
same,Edema D. ± S.E.,"Kaolin-induced edema; after 3 hrs, oral 8 mg/kg",.369 ± .048
same,% of Inhibition,"Kaolin-induced edema; after 3 hrs, oral 40 mg/kg",35%
same,Edema D. ± S.E.,"Kaolin-induced edema; after 3 hrs, oral 40 mg/kg",.271 ± .075
same,% of Inhibition,"Kaolin-induced edema; after 5 hrs, oral 8 mg/kg",8%
same,Edema D. ± S.E.,"Kaolin-induced edema; after 5 hrs, oral 8 mg/kg",.519 ± .035
same,% of Inhibition,"Kaolin-induced edema; after 5 hrs, oral 40 mg/kg",41%
same,Edema D. ± S.E.,"Kaolin-induced edema; after 5 hrs, oral 40 mg/kg",.333 ± .073
same,% of Inhibition,"Kaolin-induced edema; after 7 hrs, oral 8 mg/kg",-3%
same,Edema D. ± S.E.,"Kaolin-induced edema; after 7 hrs, oral 8 mg/kg",.625 ± .040
same,% of Inhibition,"Kaolin-induced edema; after 7 hrs, oral 40 mg/kg",35%
same,Edema D. ± S.E.,"Kaolin-induced edema; after 7 hrs, oral 40 mg/kg",.396 ± .072
same,% of Inhibition,"ARRS-induced edema; after 2 hrs, oral 8 mg/kg",5%
same,Edema D. ± S.E.,"ARRS-induced edema; after 2 hrs, oral 8 mg/kg",.649 ± .032
same,% of Inhibition,"ARRS-induced edema; after 2 hrs, oral 40 mg/kg",17%
same,Edema D. ± S.E.,"ARRS-induced edema; after 2 hrs, oral 40 mg/kg",.563 ± .016
same,% of Inhibition,"ARRS-induced edema; after 3 hrs, oral 8 mg/kg",13%
same,Edema D. ± S.E.,"ARRS-induced edema; after 3 hrs, oral 8 mg/kg",.621 ± .058
same,% of Inhibition,"ARRS-induced edema; after 3 hrs, oral 40 mg/kg",25%
same,Edema D. ± S.E.,"ARRS-induced edema; after 3 hrs, oral 40 mg/kg",.535 ± .027
same,% of Inhibition,"Dextran-induced edema; after 2 hrs, oral 8 mg/kg",10%
same,Edema D. ± S.E.,"Dextran-induced edema; after 2 hrs, oral 8 mg/kg",.753 ± .052
same,% of Inhibition,"Dextran-induced edema; after 2 hrs, oral 40 mg/kg",6%
same,Edema D. ± S.E.,"Dextran-induced edema; after 2 hrs, oral 40 mg/kg",.780 ± .033
same,% of Inhibition,"Dextran-induced edema; after 3 hrs, oral 8 mg/kg",10%
same,Edema D. ± S.E.,"Dextran-induced edema; after 3 hrs, oral 8 mg/kg",.780 ± .033
same,% of Inhibition,"Dextran-induced edema; after 3 hrs, oral 40 mg/kg",8%
same,Edema D. ± S.E.,"Dextran-induced edema; after 3 hrs, oral 40 mg/kg",.692 ± .048
